In patent publication US8362034B2, “Quinoline compound, and composition containing centipede extract or compounds isolated therefrom for prevention and treatment of cardiovascular disease” (Korea Research Institute of Bioscience and Biotechnology, priority 2005, dated 2013):

What follows are compounds tested against T1, hACAT-1 (Homo sapiens, UniProt P35610) (assay: ACAT activity, hACAT-1 microsomes, [1-14C]oleoyl-CoA). Settings: 100 μg/ml; read-out: Inhibitory activity (%) hACAT-1.
T1 construct: made in house; host or cells: baculovirus; virus produced in sf9, protein expressed in Hi5 insect cells; microsome fraction used
T1 sequence (P35610 1-550): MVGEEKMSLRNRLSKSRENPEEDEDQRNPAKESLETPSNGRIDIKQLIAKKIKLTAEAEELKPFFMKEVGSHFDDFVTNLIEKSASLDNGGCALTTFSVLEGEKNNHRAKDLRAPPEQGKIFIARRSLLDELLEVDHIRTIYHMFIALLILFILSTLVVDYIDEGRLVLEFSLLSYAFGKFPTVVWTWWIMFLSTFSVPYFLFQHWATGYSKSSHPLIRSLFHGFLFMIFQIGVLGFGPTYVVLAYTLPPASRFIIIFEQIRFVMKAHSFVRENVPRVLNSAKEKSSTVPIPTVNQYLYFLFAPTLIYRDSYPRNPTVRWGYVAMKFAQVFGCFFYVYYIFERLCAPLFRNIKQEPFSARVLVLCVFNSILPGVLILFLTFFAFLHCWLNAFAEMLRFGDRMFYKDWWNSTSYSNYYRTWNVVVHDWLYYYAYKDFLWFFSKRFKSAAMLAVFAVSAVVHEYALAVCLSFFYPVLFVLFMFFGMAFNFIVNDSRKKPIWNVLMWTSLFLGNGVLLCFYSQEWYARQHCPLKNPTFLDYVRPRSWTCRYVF
Type: biochemical
Source text: (§1) To investigate the effect on human ACAT-1 and ACAT-2 activities, hACAT-1 and hACAT-2 proteins were obtained using baculovirus expression system.
(§2) hACAT-1 and hACAT-2 cDNAs, obtained by human liver cDNA library screening, were inserted into the baculovirus transfer vector, which was introduced into an insect cell line sf9 to produce virus. Then, recombinant virus of each hACAT-1 and hACAT-2 was separated by plaque purification, followed by amplification three times to raise titer of the viral stock. Hi5 insect cells having high protein expression efficiency were infected with the recombinant virus (1 multiplicity of infection), followed by shaking culture at 27° C. for a day. Centrifugation was performed at 500×g for 15 minutes to separate microsome fractions from Hi5 cells over-expressing hACAT-1 and hACAT-2. The resultant cells were lysed in a hypotonic buffer by quick freezing-quick thawing, followed by ultracentrifugation at 100,000×g for one hour. The obtained microsome fractions were suspended in the hypotonic buffer until the concentration of the protein reached 8 mg/ml, which was stored in a deep freezer until use.
(§3) To measure the ACAT activity, [1-^14C] oleoly-CoA (56.0 μCi/μmol; Amersham) was used as a substrate and a method of Brecher & Chan was used with a slight modification [P. Brecher and C. Chan, Biochem. Biophys. Acta, 617, 458, 1980].
(§4) Ten μl of the centipede extracts or the compound prepared in the above Example was mixed with 4.0 μl of the microsomal solution prepared in Experimental Example <2-1>, 20.0 μl of an activity analyzing buffer (0.5 M KH2PO4, 10 mM DTT, pH 7.4; Sigma), 15.0 μl of fatty acid-free bovine serum albumin (fatty acid-free BSA, stock concentration 40 mg/ml; Sigma), 2.0 μl of cholesterol (stock solution 20 mg/ml; Sigma) and 41.0 μl of distilled water, which was preincubated at 37° C. for 15 minutes. […] The radioactivity of the mixture was measured with 1450 Microbeta liquid scintillation counter (Wallacoy).
(§5) ACAT activity was calculated as pmol of cholesteryl oleate synthesized per 1 mg of protein in one minute (pmol/minute/mg of protein).

Row | inhibition at 100 µg/mL | SMILES
1 | 60% | Oc1cnc2c(O)cccc2c1 [Compound 1, 3,8-dihydroxyquinoline]
2 | 79% | COc1c(O)nc2c(O)cccc2c1OC [Compound 2, 3,4-dimethoxyquinoline-2,8-diol]
3 | 63% | CC(C)(C)c1ccc(O)c(C(C)(C)C)c1 [Compound 3, 2,4-di-tert-butylphenol]

These compounds were tested against T2, hACAT-2 (Homo sapiens, UniProt O75908) (assay: ACAT activity, hACAT-2 microsomes, [1-14C]oleoyl-CoA). Settings: 100 μg/ml; read-out: Inhibitory activity (%) hACAT-2.
T2 construct: made in house; host or cells: baculovirus; virus produced in sf9, protein expressed in Hi5 insect cells; microsome fraction used
T2 sequence (O75908 1-522): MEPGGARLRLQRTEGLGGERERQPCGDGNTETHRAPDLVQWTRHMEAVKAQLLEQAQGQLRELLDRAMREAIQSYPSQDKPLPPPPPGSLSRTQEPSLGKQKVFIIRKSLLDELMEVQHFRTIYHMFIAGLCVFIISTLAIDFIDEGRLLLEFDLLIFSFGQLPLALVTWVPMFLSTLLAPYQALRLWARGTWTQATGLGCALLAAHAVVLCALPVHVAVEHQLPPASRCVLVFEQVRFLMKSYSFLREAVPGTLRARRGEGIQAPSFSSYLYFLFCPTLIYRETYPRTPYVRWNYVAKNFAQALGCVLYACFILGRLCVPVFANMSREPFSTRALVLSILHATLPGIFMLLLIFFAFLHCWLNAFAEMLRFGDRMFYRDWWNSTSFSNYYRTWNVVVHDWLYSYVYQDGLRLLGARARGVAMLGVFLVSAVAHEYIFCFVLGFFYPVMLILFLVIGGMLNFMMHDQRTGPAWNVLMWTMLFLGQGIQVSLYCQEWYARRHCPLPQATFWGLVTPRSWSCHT
Type: biochemical
Source text: as §1, §2, §3, §4, §5

Row | inhibition at 100 µg/mL | SMILES
4 | 50% | Oc1cnc2c(O)cccc2c1 [Compound 1, 3,8-dihydroxyquinoline]
5 | 58% | COc1c(O)nc2c(O)cccc2c1OC [Compound 2, 3,4-dimethoxyquinoline-2,8-diol]
6 | 51% | CC(C)(C)c1ccc(O)c(C(C)(C)C)c1 [Compound 3, 2,4-di-tert-butylphenol]

What follows are compounds tested on LDL (assay: LDL-antioxidant activity by TBARS (Cu2+-mediated LDL-oxidation)). Settings: not given.
Type: biochemical, human
Method: Ed., Methods in Enzymology. Vol. 234, Oxygen radicals in biological systems Part D. Academic press, San Diego, 1994]. Three hundred ml of human plasma was taken, followed by centrifugation at 100,000×g for 24 hours with an ultracentrifuge. VLDL/chylomicrom layer floating in the supernatant was eliminated. […] At that time, the compounds were dissolved in dimethylsulfoxide (DMSO) and diluted at different concentrations to be ready for the experiment. DMSO alone was used as a negative control. As a positive control, probucol, a known antioxidant, was added. To each solution was added 10 μl of 0.25 mM CuSO4, followed by reaction at 37° C. for 4 hours. The reaction was terminated by addition of 1 ml of 20% trichloroacetic acid (TCA) solution. 1 ml of 0.67% TBA solution dissolved in 0.05 N NaOH solution was added thereto, followed by stirring for 10 seconds. The solution was heated at 95° C. for 5 minutes to induce color development and then cooled down with ice water. The solution was centrifuged at 3000 rpm for 5 minutes to separate the supernatant and OD540 was measured with UV/VIS spectrophotometer to measure the level of malondialdehyde (MDA) generated by the color development. In the meantime, to calculate the standard curve of malondialdehyde, the stock solution of malonaldehyde bis (dimethylacetal) was diluted, resulting in PBS standard solution containing 0˜10 nmol malondialdehyde. […] The malondialdehyde generated from the compounds of the invention was quantified and inhibitory activity and IC50 were also calculated.

Row | IC50 | SMILES
7 | 2.6 µM | Oc1cnc2c(O)cccc2c1 [Compound 1, 3,8-dihydroxyquinoline]
8 | 63 µM | COc1c(O)nc2c(O)cccc2c1OC [Compound 2, 3,4-dimethoxyquinoline-2,8-diol]
9 | 8.2 µM | CC(C)(C)c1ccc(O)c(C(C)(C)C)c1 [Compound 3, 2,4-di-tert-butylphenol]
10 | 3.1 µM | CC(C)(Sc1cc(C(C)(C)C)c(O)c(C(C)(C)C)c1)Sc1cc(C(C)(C)C)c(O)c(C(C)(C)C)c1 [Probucol, probucol, reference compound]
